Reference: EP4810038A1, “METHOD FOR TREATING ALK-POSITIVE OR ROS1-POSITIVE NON-SMALL CELL LUNG CANCER” (Shenzhen TargetRx Co., Ltd., priority 2023, dated 2025)

Tested on: ALK-positive or ROS1-positive advanced non-small cell lung cancer
Assay: Phase I clinical trial, dose escalation and expansion phases: efficacy (RECIST 1.1)
Format: in vivo, human
Experimental: The anti-tumor efficacy is evaluated according to RECIST version 1.1. For patients initially evaluated as having a complete response (CR) or partial response (PR), efficacy should be confirmed at least 4 weeks later. In the patients with asymptomatic central nervous system (CNS) metastases, in addition to evaluating 5 extracranial target lesions, up to 5 intracranial target lesions will also be evaluated. The specific indicators are as follows:
"CR" is defined as the disappearance of all target lesions, and the diameters of the short axis of all the pathological lymph nodes (whether target or non-target lymph nodes) must be reduced to 10 mm or less.
"PR" is defined as a reduction of at least 30% in the total diameter of the target lesions, with the total diameter of the baseline as a reference value.
"PD" is defined as an increase of at least 20% in the total diameter of the target lesions, using the minimum total diameter in the study as a reference value (this value may include the total diameter of the baseline). In addition, the absolute value of the total diameter must increase by at least 5 mm (the appearance of one or more new lesions is also considered as progressive disease).
"SD" is defined as a state in which the reduction in target lesions is insufficient to achieve partial response and the increase is insufficient to achieve progressive disease.
"ORR" includes CR and PR, and is defined as the proportion of patients who achieve complete response or partial response.
"IC-ORR" includes CR or PR for confirmed intracranial lesions, and is defined as the proportion of the patients with complete response or partial response of intracranial lesions among the patients with intracranial lesions.
"DCR" is defined as the proportion of the patients who achieve response (PR+CR) and stable disease (SD) after a treatment.
"IC-DCR" is defined as the proportion of the patients who achieve intracranial response (PR+CR), intracranial stable disease (SD), and […] after a treatment among the patients with intracranial lesions.
"DOR" is defined as the time from the first assessment of CR or PR to progressive disease or death, and is only applicable to the patients who achieve response.
"IC-DOR" is defined as the time from the first assessment of intracranial CR or intracranial PR to progressive disease or death, and is only applicable to the patients whose intracranial lesions achieve response.
"TTR" is defined as the time from patient enrollment (first dose of investigational drug) to tumor response (CR/PR), based on the patients with objective response.
"IC-TTR" is defined as the time from patient enrollment (first dose of investigational drug) to intracranial tumor response (IC-CR/PR), based on the patients with intracranial objective response.
Approximately eight dose groups in total were set in the dose escalation phase, which were 5 (the starting dose), 10, 20, 40, 60, 80, 100, and 125 mg, respectively. Subjects in all the dose groups received a single dose on day 1 (D1), and the blood samples were collected for pharmacokinetic (PK) assay and tolerability observation. If no grade 2 or a higher-level adverse event related to the investigational drug occurred during the single-dose period (5 to 7 days) (if such events occurred, dose adjustments would be made based on the toxicity according to the protocol), the subject entered the multiple-dose period (i.e., treatment period) 5 to 7 days later (7 days after the first administration in the first dose group (i.e., starting the multiple-dose treatment on day 8), and the intervals for the subsequent dose groups were determined based on the obtained tolerability and PK data). […]

[2H]C([2H])([2H])n1nc2c(c1C#N)-c1cnc(N)c(c1)O[C@H](C)c1cc(F)ccc1C(=O)N(C)C2 [compound A, (10R)-7-amino-12-fluoro-2-(methyl-d3)-10,16-dimethyl-15-oxo-10,15,16,17-tetrahydro-2H-8,4-(metheno)pyrazolo[4,3-h][2,5,11]benzoxadiazacyclotetradecine-3-carbonitrile]
BOR CR (intracranial, 10mg (N=1)): 0 n (%)
BOR NE (intracranial, 10mg (N=1)): 0 n (%)
BOR PD (intracranial, 10mg (N=1)): 0 n (%)
BOR PR (intracranial, 10mg (N=1)): 1 (100) n (%)
BOR SD (intracranial, 10mg (N=1)): 0 n (%)
Confirmed IC-ORR (95% CI) (intracranial, 10mg (N=1)): 1 (100) (2.5, 100.0) n (%)
IC-DCR (95% CI) (intracranial, 10mg (N=1)): 1 (100) (2.5, 100.0) n (%)
Median IC-DOR (95% CI) (intracranial, 10mg (N=1)): 5.55 (-, -) months
Median IC-TTR (range) (intracranial, 10mg (N=1)): 1.35 (1.35, 1.35) months
BOR CR (intracranial, 20mg (N=1)): 0 n (%)
BOR NE (intracranial, 20mg (N=1)): 0 n (%)
BOR PD (intracranial, 20mg (N=1)): 0 n (%)
BOR PR (intracranial, 20mg (N=1)): 1 (100) n (%)
BOR SD (intracranial, 20mg (N=1)): 0 n (%)
Confirmed IC-ORR (95% CI) (intracranial, 20mg (N=1)): 1 (100) (2.5, 100.0) n (%)
IC-DCR (95% CI) (intracranial, 20mg (N=1)): 1 (100) (2.5, 100.0) n (%)
Median IC-TTR (range) (intracranial, 20mg (N=1)): 1.35 (1.35, 1.35) months
BOR CR (intracranial, 40mg (N=4)): 0 n (%)
BOR NE (intracranial, 40mg (N=4)): 1 (25.0) n (%)
BOR PD (intracranial, 40mg (N=4)): 0 n (%)
BOR PR (intracranial, 40mg (N=4)): 0 n (%)
BOR SD (intracranial, 40mg (N=4)): 3 (75.0) n (%)
Confirmed IC-ORR (95% CI) (intracranial, 40mg (N=4)): 0 (0.0, 60.2) n (%)
IC-DCR (95% CI) (intracranial, 40mg (N=4)): 3 (75.0) (19.4, 99.4) n (%)
BOR CR (intracranial, 60mg (N=2)): 0 n (%)
BOR NE (intracranial, 60mg (N=2)): 0 n (%)
BOR PD (intracranial, 60mg (N=2)): 0 n (%)
BOR PR (intracranial, 60mg (N=2)): 2 (100) n (%)
BOR SD (intracranial, 60mg (N=2)): 0 n (%)
Confirmed IC-ORR (95% CI) (intracranial, 60mg (N=2)): 2 (100) (15.8, 100.0) n (%)
IC-DCR (95% CI) (intracranial, 60mg (N=2)): 2 (100) (15.8, 100.0) n (%)
Median IC-DOR (95% CI) (intracranial, 60mg (N=2)): 17.97 (-, -) months
Median IC-TTR (range) (intracranial, 60mg (N=2)): 4.11 (1.35, 6.87) months
BOR CR (intracranial, 80mg (N=4)): 0 n (%)
BOR NE (intracranial, 80mg (N=4)): 1 (25.0) n (%)
BOR PD (intracranial, 80mg (N=4)): 0 n (%)
BOR PR (intracranial, 80mg (N=4)): 1 (25.0) n (%)
BOR SD (intracranial, 80mg (N=4)): 2 (50.0) n (%)
Confirmed IC-ORR (95% CI) (intracranial, 80mg (N=4)): 1 (25.0) (0.6, 80.6) n (%)
IC-DCR (95% CI) (intracranial, 80mg (N=4)): 3 (75.0) (19.4, 99.4) n (%)
Median IC-TTR (range) (intracranial, 80mg (N=4)): 1.51 (1.51, 1.51) months
BOR CR (intracranial, 100mg (N=2)): 0 n (%)
BOR NE (intracranial, 100mg (N=2)): 0 n (%)
BOR PD (intracranial, 100mg (N=2)): 0 n (%)
BOR PR (intracranial, 100mg (N=2)): 0 n (%)
BOR SD (intracranial, 100mg (N=2)): 2 (100) n (%)
Confirmed IC-ORR (95% CI) (intracranial, 100mg (N=2)): 0 (0.0, 84.2) n (%)
IC-DCR (95% CI) (intracranial, 100mg (N=2)): 2 (100) (15.8, 100.0) n (%)
BOR CR (intracranial, 125mg (N=1)): 0 n (%)
BOR NE (intracranial, 125mg (N=1)): 0 n (%)
BOR PD (intracranial, 125mg (N=1)): 0 n (%)
BOR PR (intracranial, 125mg (N=1)): 0 n (%)
BOR SD (intracranial, 125mg (N=1)): 1 (100) n (%)
Confirmed IC-ORR (95% CI) (intracranial, 125mg (N=1)): 0 (0.0, 97.5) n (%)
IC-DCR (95% CI) (intracranial, 125mg (N=1)): 1 (100) (2.5,100.0) n (%)
BOR CR (systemic, 5mg (N=1)): 0 n (%)
BOR NE (systemic, 5mg (N=1)): 0 n (%)
BOR PD (systemic, 5mg (N=1)): 0 n (%)
BOR PR (systemic, 5mg (N=1)): 0 n (%)
BOR SD (systemic, 5mg (N=1)): 1 (100) n (%)
Confirmed ORR (95% CI) (systemic, 5mg (N=1)): 0 (0.0, 97.5) n (%)
